According to the supplement of paper PMC7695840:
Several values for one entry are separate records, joined by “and”; a condition that tells them apart may be missing. Equal entries are not always repeated. Structures can show the parent of a compound that is named as a salt.

Columns and labels:
[1] = test system: Staphylococcus aureus MW2 (mecA+); assay: IC50 (growth, competition assay); details: cefoxitin: subinhibitory
How it was run: (§1)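 Per plate, DsRed (540/590) and GFP (485/520) readings were normalized between the medians of the single-strain controls, after which No Treatment was fixed at 0.5. These readings came from a 1:1 mix of pre-induced fluorescent S. aureus MW2 strains with and without the resistance gene, grown for 20 h at 37 °C and 90% humidity, unshaken, in LB with a daily-set subinhibitory drug dose in 1536-well plates. Per-strain IC50 meant the dose halving the No Treatment signal, or the maximal signal.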

[2] = test system: Staphylococcus aureus MW2 delta-mecA (mecA-); assay: IC50 (growth, competition assay); details: cefoxitin: subinhibitory
How it was run: as §1

Structure (SMILES)	IC50 ([1]; fluorescent label: DsRed)	IC50 ([1]; fluorescent label: GFP)	IC50 ([2]; fluorescent label: DsRed)	IC50 ([2]; fluorescent label: GFP)
CCOc1ccc2ccccc2c1C(=O)N[C@@H]1C(=O)N2[C@@H]1SC(C)(C)[C@@H]2C(=O)O [Nafcillin Sodium]	< 9.85 µM	< 9.85 µM	< 9.85 µM	< 9.85 µM
CC(=O)NC[C@H]1CN(c2ccc(N3CCOCC3)c(F)c2)C(=O)O1 [Linezolid (Zyvox)]	2.31 µM	2.83 µM	0.992 µM	< 0.498 µM
O=C1C(SCCO)=C(SCCO)C(=O)c2ccccc21	11.8 µM	16.3 µM	< 9.85 µM	< 9.85 µM
OCCN1CCN(CC/C=C2/c3ccccc3Sc3ccc(C(F)(F)F)cc32)CC1 [cis-(Z)-Flupenthixol dihydrochloride]	34.6 µM	42.6 µM	12.9 µM	< 9.85 µM
CN(C)[C@@H]1C(O)=C(C(N)=O)C(=O)[C@@]2(O)C(O)=C3C(=O)c4c(O)ccc(Cl)c4[C@@](C)(O)[C@H]3C[C@@H]12 [AUREOMYCIN]	< 9.85 µM	< 9.85 µM	< 9.85 µM	< 9.85 µM
CCn1cc(C(=O)O)c(=O)c2cc(F)c(N3CCN(C)CC3)cc21 [Pefloxacin Mesylate Dihydrate]	< 9.85 µM	< 9.85 µM	< 9.85 µM	< 9.85 µM
Cc1cc(OCCCS(C)(=O)=O)cc(C)c1-c1cccc(COc2ccc3c(c2)OC[C@H]3CC(=O)O)c1 [TAK-875]	< 9.85 µM and 22.5 µM	14.9 µM and 29.2 µM	< 9.85 µM	< 9.85 µM and 12.2 µM
CC(C)c1ccc2c(c1)CC[C@H]1[C@](C)(CN)CCC[C@]21C [18-AMINOABIETA-8,11,13-TRIENE SULFATE]	62.5 µM	79.2 µM	55.7 µM	55.8 µM
C[C@H]1O[C@@H](n2cc(F)c(=O)[nH]c2=O)[C@H](O)[C@@H]1O [FURTULON]	10.3 µM	< 9.85 µM	< 9.85 µM	< 9.85 µM
COC(=O)[C@@]1(C)CCC[C@]2(C)c3ccc(O)c(C(C)C)c3CCC12 (stereo partly specified) [TOTAROL-19-CARBOXYLIC ACID, METHYL ESTER]	27.6 µM	62.8 µM	66 µM	15.6 µM
Cc1cc(SCc2sc(-c3ccc(C(F)(F)F)c(F)c3)nc2C)ccc1OCC(=O)O [GW0742]	11.6 µM	15.1 µM	< 9.85 µM	< 9.85 µM
O=C(O[C@H]1CN2CCC1CC2)N1CCc2ccccc2[C@@H]1c1ccccc1 [VESICARE]	47.9 µM	68.2 µM	31.8 µM	19.9 µM
CC(C)(Oc1ccc(C2CC2(Cl)Cl)cc1)C(=O)O (stereo unspecified) [Ciprofibrate]	93.1 µM	107 µM	21.6 µM	30.6 µM
O=C(Nc1ccccc1)Nc1ccc(-c2ccc(C(=O)[C@@H]3CCC[C@H]3C(=O)O)cc2)cc1	22.7 µM	41.4 µM	< 9.85 µM	< 9.85 µM
CN(C)C(=S)SSC(=S)N(C)C [REZIFILM]	33.4 µM	63.6 µM	18.2 µM	23.6 µM
COc1cc(-c2ccc(/N=N/c3ccc4c(S(=O)(=O)O)cc(S(=O)(=O)O)c(N)c4c3O)c(OC)c2)ccc1/N=N/c1ccc2c(S(=O)(=O)O)cc(S(=O)(=O)O)c(N)c2c1O [CHICAGO SKY BLUE]	24.8 µM	16.5 µM	< 9.85 µM	< 9.85 µM
CCN1CCN(c2cc3c(cc2F)c(=O)c(C(=O)O)cn3C2CC2)CC1 [Enrofloxacin]	< 9.85 µM	< 9.85 µM	< 9.85 µM	< 9.85 µM
CCCCCCCCCCCCCCCCOP(=O)([O-])OCC[N+](C)(C)C [MILTEX]	35.2 µM	33.7 µM	31.1 µM	28.1 µM
O=C1NC(c2cccc([N+](=O)[O-])c2)=CCN1c1ccccc1O [Icilin]	63.3 µM	54.4 µM	19.3 µM	25.5 µM
NC(=O)c1cc[n+](CC2=C(C(=O)[O-])N3C(=O)[C@@H](NC(=O)Cc4cccs4)[C@H]3SC2)cc1 [CEFALONIUM]	17.5 µM	15.3 µM	< 9.85 µM	< 9.85 µM
CC[C@H]1OC(=O)[C@H](C)[C@@H](O[C@H]2C[C@@](C)(OC)[C@@H](O)[C@H](C)O2)[C@H](C)[C@@H](O[C@@H]2O[C@H](C)C[C@H](N(C)C)[C@H]2O)[C@](C)(O)C[C@@H](C)/C(=N\OCOCCOC)[C@H](C)[C@@H](O)[C@]1(C)O [RULIDE]	< 9.85 µM	< 9.85 µM	< 9.85 µM	< 9.85 µM
Cc1nc2ccccc2n1Cc1ccc(Cl)cc1 [CHLORMIDAZOLE]	< 9.85 µM	10.3 µM	< 9.85 µM	< 9.85 µM
CC1=C2C(=CO[C@H](C)[C@H]2C)C(O)=C(C(=O)O)C1=O [CITRININ]	29.8 µM	47.6 µM	26.2 µM	29.4 µM
CCn1cc(C(=O)O)c(=O)c2ccc(C)nc21 [Nalidixic acid (NegGram)]	99.9 µM and 57.2 µM	110 µM and 57.2 µM	31.2 µM and 18.4 µM	17.2 µM and 16.7 µM
